Measurements reported in patent publication US20240051997A1, “SAP AND PEPTIDOMIMETIC COMPOSITIONS FOR REDUCING SYMPTOMS OF INFLAMMATION” (Arch Biosurgery, Inc., priority 2018, published 2024).

System: Human THP-1 cells
Experiment: Cytokine release by THP-1 cells stimulated with RADA-16 or LPS (PROTEOME PROFILER Array)
Type: cell-based
Experimental: The anti-inflammatory effect of a SAP was examined using an in vitro assay to assess cytokine release by human THP-1 cells in the presence of SAP. Measurement of THP-1 cell activation in response to antigen was assessed by cytokine release.
Human THP-1 cells in culture media (1×10^6 cells in 1 ml of Culture medium) were exposed to the self-assembling peptide RADARADARADARADA (“RADA-16”; SEQ ID NO: 1), at a concentration of 1 μg/well, 10 μg/well, or 100 μg/well.
Human THP-1 cells in the absence of RADA-16 were used as a control to assess the baseline level of cytokine production in “resting” non-actived THP-1 cells.
To assess cytokine release upon THP-1 cell activation, lipopolysaccharides (LPS) from Salmonella typhimurium (catalog no. L-7261; Sigma-Aldrich, St. Louis, MO) were added to THP-1 cells, at a concentration of 1 μg/ml.
The release of cytokines in response to exposure of THP-1 cells to RADA-16 (SEQ ID NO: 1) or LPS was measured using the PROTEOME PROFILER™ Array kit, commercially available as a test strip kit for detection of cytokines in solution (R&D Systems, Inc., Catalog Number ARY005). The assay was carried out according to the manufacturer's guide lines.

RADARADARADARADA [RADA-16, self-assembling peptide]
C5a (Complement Component 5a) release (1 mcg (1 μg/well) RADA-16): 0 | CD40 Ligand (CD154) release (1 mcg (1 μg/well) RADA-16): 0 | G-CSF (CSF −, CSF-3) release (1 mcg (1 μg/well) RADA-16): 0 | GM-CSF (CSF |, CSF-2) release (1 mcg (1 μg/well) RADA-16): 0 | GRO | (CXCL1) release (1 mcg (1 μg/well) RADA-16): 0 | I-309 (CCL1) release (1 mcg (1 μg/well) RADA-16): 0 | I-TAC (CXCL11) release (1 mcg (1 μg/well) RADA-16): 0 | IFN-• (Type II IFN) release (1 mcg (1 μg/well) RADA-16): 0 | IL-1 alpha (IL-1F1) release (1 mcg (1 μg/well) RADA-16): 0 | IL-1 beta (IL-1F2) release (1 mcg (1 μg/well) RADA-16): 0 | IL-1ra (IL-1F3) release (1 mcg (1 μg/well) RADA-16): 22.59 | IL-2 release (1 mcg (1 μg/well) RADA-16): 0 | IL-4 release (1 mcg (1 μg/well) RADA-16): 0 | IL-5 release (1 mcg (1 μg/well) RADA-16): 0 | IL-6 release (1 mcg (1 μg/well) RADA-16): 0 | IL-8 (CXCL8) release (1 mcg (1 μg/well) RADA-16): 0 | IL-10 release (1 mcg (1 μg/well) RADA-16): 0 | IL-12 p 70 release (1 mcg (1 μg/well) RADA-16): 0 | IL-13 release (1 mcg (1 μg/well) RADA-16): 0 | IL-16 (LCF) release (1 mcg (1 μg/well) RADA-16): 0 | IL-17E release (1 mcg (1 μg/well) RADA-16): 0 | IL-17 release (1 mcg (1 μg/well) RADA-16): 0 | IL-23 release (1 mcg (1 μg/well) RADA-16): 0 | IL-27 release (1 mcg (1 μg/well) RADA-16): 0 | IL-32 release (1 mcg (1 μg/well) RADA-16): 0 | IP-10 (CXCL10) release (1 mcg (1 μg/well) RADA-16): 0 | MCP-1 (CCL2) release (1 mcg (1 μg/well) RADA-16): 0 | MIP-1 | (CCL3) release (1 mcg (1 μg/well) RADA-16): 0 | MIP-1− (CCL4) release (1 mcg (1 μg/well) RADA-16): 0 | SDF-1 (CXCL12) release (1 mcg (1 μg/well) RADA-16): 0 | TNF- | (TNFSF2) release (1 mcg (1 μg/well) RADA-16): 0 | sICAM-1 (CD54) release (1 mcg (1 μg/well) RADA-16): 0 | sTREM-1 release (1 mcg (1 μg/well) RADA-16): 0 | C5a (Complement Component 5a) release (10 mcg (10 μg/well) RADA-16): 0 | CD40 Ligand (CD154) release (10 mcg (10 μg/well) RADA-16): 0 | G-CSF (CSF −, CSF-3) release (10 mcg (10 μg/well) RADA-16): 0 | GM-CSF (CSF |, CSF-2) release (10 mcg (10 μg/well) RADA-16): 0 | GRO | (CXCL1) release (10 mcg (10 μg/well) RADA-16): 0 | I-309 (CCL1) release (10 mcg (10 μg/well) RADA-16): 0 | I-TAC (CXCL11) release (10 mcg (10 μg/well) RADA-16): 0 | IFN-• (Type II IFN) release (10 mcg (10 μg/well) RADA-16): 0 | IL-1 alpha (IL-1F1) release (10 mcg (10 μg/well) RADA-16): 0 | IL-1 beta (IL-1F2) release (10 mcg (10 μg/well) RADA-16): 0 | IL-1ra (IL-1F3) release (10 mcg (10 μg/well) RADA-16): 0 | IL-2 release (10 mcg (10 μg/well) RADA-16): 0 | IL-4 release (10 mcg (10 μg/well) RADA-16): 0 | IL-5 release (10 mcg (10 μg/well) RADA-16): 0 | IL-6 release (10 mcg (10 μg/well) RADA-16): 0 | IL-8 (CXCL8) release (10 mcg (10 μg/well) RADA-16): 0 | IL-10 release (10 mcg (10 μg/well) RADA-16): 0 | IL-12 p 70 release (10 mcg (10 μg/well) RADA-16): 0 | IL-13 release (10 mcg (10 μg/well) RADA-16): 0 | IL-16 (LCF) release (10 mcg (10 μg/well) RADA-16): 0 | IL-17E release (10 mcg (10 μg/well) RADA-16): 0 | IL-17 release (10 mcg (10 μg/well) RADA-16): 0 | IL-23 release (10 mcg (10 μg/well) RADA-16): 0 | IL-27 release (10 mcg (10 μg/well) RADA-16): 0 | IL-32 release (10 mcg (10 μg/well) RADA-16): 0 | IP-10 (CXCL10) release (10 mcg (10 μg/well) RADA-16): 0 | MCP-1 (CCL2) release (10 mcg (10 μg/well) RADA-16): 0 | MIP-1 | (CCL3) release (10 mcg (10 μg/well) RADA-16): 0 | MIP-1− (CCL4) release (10 mcg (10 μg/well) RADA-16): 0 | SDF-1 (CXCL12) release (10 mcg (10 μg/well) RADA-16): 0 | TNF- | (TNFSF2) release (10 mcg (10 μg/well) RADA-16): 0 | sICAM-1 (CD54) release (10 mcg (10 μg/well) RADA-16): 0 | sTREM-1 release (10 mcg (10 μg/well) RADA-16): 0 | C5a (Complement Component 5a) release (100 mcg (100 μg/well) RADA-16): 0 | CD40 Ligand (CD154) release (100 mcg (100 μg/well) RADA-16): 0 | G-CSF (CSF −, CSF-3) release (100 mcg (100 μg/well) RADA-16): 0 | GM-CSF (CSF |, CSF-2) release (100 mcg (100 μg/well) RADA-16): 0 | GRO | (CXCL1) release (100 mcg (100 μg/well) RADA-16): 0 | I-309 (CCL1) release (100 mcg (100 μg/well) RADA-16): 0 | I-TAC (CXCL11) release (100 mcg (100 μg/well) RADA-16): 0 | IFN-• (Type II IFN) release (100 mcg (100 μg/well) RADA-16): 0 | IL-1 alpha (IL-1F1) release (100 mcg (100 μg/well) RADA-16): 0 | IL-1 beta (IL-1F2) release (100 mcg (100 μg/well) RADA-16): 0 | IL-1ra (IL-1F3) release (100 mcg (100 μg/well) RADA-16): 0 | IL-2 release (100 mcg (100 μg/well) RADA-16): 0 | IL-4 release (100 mcg (100 μg/well) RADA-16): 0 | IL-5 release (100 mcg (100 μg/well) RADA-16): 0 | IL-6 release (100 mcg (100 μg/well) RADA-16): 0 | IL-8 (CXCL8) release (100 mcg (100 μg/well) RADA-16): 0 | IL-10 release (100 mcg (100 μg/well) RADA-16): 0 | IL-12 p 70 release (100 mcg (100 μg/well) RADA-16): 0 | IL-13 release (100 mcg (100 μg/well) RADA-16): 0 | IL-16 (LCF) release (100 mcg (100 μg/well) RADA-16): 0 | IL-17E release (100 mcg (100 μg/well) RADA-16): 0 | IL-17 release (100 mcg (100 μg/well) RADA-16): 0 | IL-23 release (100 mcg (100 μg/well) RADA-16): 0 | IL-27 release (100 mcg (100 μg/well) RADA-16): 0 | IL-32 release (100 mcg (100 μg/well) RADA-16): 0 | IP-10 (CXCL10) release (100 mcg (100 μg/well) RADA-16): 0 | MCP-1 (CCL2) release (100 mcg (100 μg/well) RADA-16): 0 | MIP-1 | (CCL3) release (100 mcg (100 μg/well) RADA-16): 0 | MIP-1− (CCL4) release (100 mcg (100 μg/well) RADA-16): 0 | SDF-1 (CXCL12) release (100 mcg (100 μg/well) RADA-16): 0 | TNF- | (TNFSF2) release (100 mcg (100 μg/well) RADA-16): 0 | sICAM-1 (CD54) release (100 mcg (100 μg/well) RADA-16): 0 | sTREM-1 release (100 mcg (100 μg/well) RADA-16): 0 | induction of cytokine release relative to baseline (resting THP-1 cells, 1, 10 or 100 μg/well, no LPS): did not induce cytokine release beyond baseline levels
